Measurements published in patent publication US10246456B2, “IRAK4 inhibiting agents” (BIOGEN MA INC., priority 2014, dated 2019).

biological target: IRAK4 (Homo sapiens (Human), UniProt Q9NWZ3); experiment: IRAK-4 AlphaScreen biochemical kinase assay; conditions: 1 nM IRAK4, 1 mM ATP, 3.5 h at RT
In short: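 AlphaScreen read-out: streptavidin beads bind the biotinylated peptide and protein A beads bind the anti-phosphothreonine antibody, so energy transfer reports phosphorylation of the peptide. The kinase is human IRAK-4.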

Chain of IRAK4 (Q9NWZ3 whole entry, species assumed): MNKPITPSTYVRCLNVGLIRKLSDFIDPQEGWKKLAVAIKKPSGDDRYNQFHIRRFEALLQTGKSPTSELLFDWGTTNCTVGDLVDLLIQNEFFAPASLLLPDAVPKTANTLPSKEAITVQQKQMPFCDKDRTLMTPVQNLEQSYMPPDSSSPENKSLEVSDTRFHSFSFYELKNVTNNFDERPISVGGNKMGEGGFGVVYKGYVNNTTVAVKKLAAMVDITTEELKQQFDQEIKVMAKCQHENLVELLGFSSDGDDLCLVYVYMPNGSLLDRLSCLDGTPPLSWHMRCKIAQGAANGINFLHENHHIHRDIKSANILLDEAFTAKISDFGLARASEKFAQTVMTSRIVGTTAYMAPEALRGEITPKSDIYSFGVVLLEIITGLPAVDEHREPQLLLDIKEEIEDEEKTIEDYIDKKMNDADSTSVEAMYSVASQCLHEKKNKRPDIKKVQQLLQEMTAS

SMILES	IC50
CC(N)c1cccc(-c2ccc3cnn(-c4cccc(C(C)(C)C(N)=O)n4)c3c2)n1 (stereo not shown) [Example 301, 2-(6-(6-(6-(1-aminoethyl)pyridin-2-yl)-1H-indazol-1-yl)pyridin-2-yl)-2-methylpropanamide]	100 to 1000 nM
CC(N)c1cccc(-c2ccc3cnc(-c4cccc(CO)n4)n3c2)n1 (stereo not shown) [Example 302, (6-(6-(6-(1-aminoethyl)pyridin-2-yl)imidazo[1,5-a]pyridin-3-yl)pyridin-2-yl)methanol]	< 100 nM
Cc1cccc(-n2ncc3c(-c4nccs4)cc(-c4cccc(C(C)N)n4)cc32)n1 (stereo not shown) [Example 303, 1-(6-(1-(6-methylpyridin-2-yl)-4-(thiazol-2-yl)-1H-indazol-6-yl)pyridin-2-yl)ethanamine]	< 100 nM
Cc1cccc(-n2ncc3ccc(-c4cccc(C5(C#N)CCC5)n4)cc32)n1 [Example 304, 1-(6-(1-(6-methylpyridin-2-yl)-1H-indazol-6-yl)pyridin-2-yl)cyclobutanecarbonitrile]	< 100 nM
Cc1cccc(-n2ncc3ccc(-c4cn(C)c(C(C)N)n4)cc32)n1 (stereo not shown) [Example 305, 1-(1-methyl-4-(1-(6-methylpyridin-2-yl)-1H-indazol-6-yl)-1H-imidazol-2-yl)ethanamine]	100 to 1000 nM
Cc1cccc(-n2ncc3ccc(-c4ccccn4)cc32)n1 [Example 306, 1-(6-methylpyridin-2-yl)-6-(pyridin-2-yl)-1H-indazole]	100 to 1000 nM
COc1cc(-c2cccc(C(C)N)n2)cc2c1cnn2-c1cccc(CO)n1 (stereo not shown) [Example 307, (6-(6-(6-(1-aminoethyl)pyridin-2-yl)-4-methoxy-1H-indazol-1-yl)pyridin-2-yl)methanol]	< 100 nM
Cc1cccc(-n2ncc3ccc(-c4ccc5c(n4)C(N)CCCC5)cc32)n1 (stereo not shown) [Example 308, 2-(1-(6-methylpyridin-2-yl)-1H-indazol-6-yl)-6,7,8,9-tetrahydro-5H-cyclohepta[b]pyridin-9-amine]	100 to 1000 nM
CC(N)c1cccc(-c2cc(CO)c3cnn(-c4cccc(CO)n4)c3c2)n1 (stereo not shown) [Example 309, (6-(6-(1-aminoethyl)pyridin-2-yl)-1-(6-(hydroxymethyl)pyridin-2-yl)-1H-indazol-4-yl)methanol]	< 100 nM
Cc1cccc(-n2ncc3ccc(-c4csc(C(C)N)n4)cc32)n1 (stereo not shown) [Example 310, 1-(4-(1-(6-methylpyridin-2-yl)-1H-indazol-6-yl)thiazol-2-yl)ethanamine]	< 100 nM
CC(N)c1cccc(-c2cc(Cl)c3cnc(-c4cccc(C(F)(F)F)n4)n3c2)n1 (stereo not shown) [Example 311, 1-(6-(8-chloro-3-(6-(trifluoromethyl)pyridin-2-yl)imidazo[1,5-a]pyridin-6-yl)pyridin-2-yl)ethanamine]	< 100 nM
Cc1cccc(-n2ncc3ccc(-c4cccc(C5(C(N)=O)CCC5)n4)cc32)n1 [Example 312, 1-(6-(1-(6-methylpyridin-2-yl)-1H-indazol-6-yl)pyridin-2-yl)cyclobutanecarboxamide]	< 100 nM
Cc1cccc(-n2ncc3ccc(-c4cccc(CCC(F)(F)F)n4)cc32)n1 [Example 313, 1-(6-methylpyridin-2-yl)-6-(6-(3,3,3-trifluoropropyl)pyridin-2-yl)-1H-indazole]	1000 to 10000 nM
CC(N)c1cccc(-c2ccc3cnn(-c4cccc(CCO)n4)c3c2)n1 (stereo not shown) [Example 314, 2-(6-(6-(6-(1-aminoethyl)pyridin-2-yl)-1H-indazol-1-yl)pyridin-2-yl)ethanol]	< 100 nM
Cc1cc(C)nc(-n2ncc3ccc(-c4cccc(C(C)N)n4)cc32)c1 (stereo not shown) [Example 315, 1-(6-(1-(4,6-dimethylpyridin-2-yl)-1H-indazol-6-yl)pyridin-2-yl)ethanamine]	1000 to 10000 nM
CNC(=O)c1cc(-c2cccc(C(C)N)n2)cc2c1cnn2-c1cccc(CO)n1 (stereo not shown) [Example 316, 6-(6-(1-aminoethyl)pyridin-2-yl)-1-(6-(hydroxymethyl)pyridin-2-yl)-N-methyl-1H-indazole-4-carboxamide]	< 100 nM
CC(N)c1cccc(-c2cc(F)c3cnc(-c4cccc(C(F)(F)F)n4)n3c2)n1 (stereo not shown) [Example 317, 1-(6-(8-fluoro-3-(6-(trifluoromethyl)pyridin-2-yl)imidazo[1,5-a]pyridin-6-yl)pyridin-2-yl)ethanamine]	< 100 nM
CC[C@H](N)c1cccc(-c2ccc3cnn(-c4cccc(CO)n4)c3c2)n1 [Example 318, (S)-(6-(6-(6-(1-aminopropyl)pyridin-2-yl)-1H-indazol-1-yl)pyridin-2-yl)methanol]	< 100 nM
Cc1cccc(-n2ncc3c(-c4cc[nH]n4)cc(-c4cccc(C(C)N)n4)cc32)n1 (stereo not shown) [Example 319, 1-(6-(1-(6-methylpyridin-2-yl)-4-(1H-pyrazol-3-yl)-1H-indazol-6-yl)pyridin-2-yl)ethanamine]	< 100 nM
Cc1cccc(-n2ncc3ccc(-c4csc(CO)n4)cc32)n1 [Example 320, (4-(1-(6-methylpyridin-2-yl)-1H-indazol-6-yl)thiazol-2-yl)methanol]	100 to 1000 nM
CC(N)c1cccc(-c2cc(F)c3cnn(-c4cccc(CO)n4)c3c2)n1 (stereo not shown) [Example 321, (6-(6-(6-(1-aminoethyl)pyridin-2-yl)-4-fluoro-1H-indazol-1-yl)pyridin-2-yl)methanol]	< 100 nM

Other lines, results leading:

IC50	SMILES
< 100 nM	CC[C@@H](N)c1cccc(-c2ccc3cnn(-c4cccc(CO)n4)c3c2)n1 [Example 322, (R)-(6-(6-(6-(1-aminopropyl)pyridin-2-yl)-1H-indazol-1-yl)pyridin-2-yl)methanol]
100 to 1000 nM	Cc1cccc(-n2ncc3ccc(-c4cn(C)cn4)cc32)n1 [Example 323, 6-(1-methyl-1H-imidazol-4-yl)-1-(6-methylpyridin-2-yl)-1H-indazole]
100 to 1000 nM	CCC[C@H](N)c1cccc(-c2cc(N3CCOCC3=O)c3cnn(-c4cccc(CO)n4)c3c2)n1 [Example 351, (S)-4-(6-(6-(1-aminobutyl)pyridin-2-yl)-1-(6-(hydroxymethyl)pyridin-2-yl)-1H-indazol-4-yl)morpholin-3-one]
< 100 nM	C[C@H](N)c1cccc(-c2cc(-n3cccn3)c3cnn(-c4cccc(CO)n4)c3c2)n1 [Example 352, (S)-(6-(6-(6-(1-aminoethyl)pyridin-2-yl)-4-(1H-pyrazol-1-yl)-1H-indazol-1-yl)pyridin-2-yl)methanol]
< 100 nM	Cc1ccn(-c2cc(-c3cccc([C@H](C)N)n3)cc3c2cnn3-c2cccc(CO)n2)n1 [Example 353, (S)-(6-(6-(6-(1-aminoethyl)pyridin-2-yl)-4-(3-methyl-1H-pyrazol-1-yl)-1H-indazol-1-yl)pyridin-2-yl)methanol]
< 100 nM	C[C@H](N)c1cccc(-c2cc(-c3csc(C(F)(F)F)n3)c3cnn(-c4cccc(CO)n4)c3c2)n1 [Example 382, (S)-(6-(6-(6-(1-aminoethyl)pyridin-2-yl)-4-(2-(trifluoromethyl)thiazol-4-yl)-1H-indazol-1-yl)pyridin-2-yl)methanol]
< 100 nM	C[C@H](N)c1cccc(-c2cc(-c3cc(C(F)(F)F)[nH]n3)c3cnn(-c4cccc(CO)n4)c3c2)n1 [Example 383, (S)-(6-(6-(6-(1-aminoethyl)pyridin-2-yl)-4-(5-(trifluoromethyl)-1H-pyrazol-3-yl)-1H-indazol-1-yl)pyridin-2-yl)methanol]
< 100 nM	CCC[C@H](N)c1cccc(-c2cc(-c3ncccn3)c3cnn(-c4cccc(CO)n4)c3c2)n1 [Example 384, (S)-(6-(6-(6-(1-aminobutyl)pyridin-2-yl)-4-(pyrimidin-2-yl)-1H-indazol-1-yl)pyridin-2-yl)methanol]
< 100 nM	C[C@H](N)c1cccc(-c2cc(-c3ncc(F)cn3)c3cnn(-c4cccc(CO)n4)c3c2)n1 [Example 385, (S)-(6-(6-(6-(1-aminoethyl)pyridin-2-yl)-4-(5-fluoropyrimidin-2-yl)-1H-indazol-1-yl)pyridin-2-yl)methanol]
< 100 nM	C[C@H](N)c1cccc(-c2cc(-c3ccn(C(F)F)n3)c3cnn(-c4cccc(CO)n4)c3c2)n1 [Example 386, (S)-(6-(6-(6-(1-aminoethyl)pyridin-2-yl)-4-(1-(difluoromethyl)-1H-pyrazol-3-yl)-1H-indazol-1-yl)pyridin-2-yl)methanol]
< 100 nM	C[C@H](N)c1cccc(-c2cc(-c3ccnn3C(F)F)c3cnn(-c4cccc(CO)n4)c3c2)n1 [Example 387, (S)-(6-(6-(6-(1-aminoethyl)pyridin-2-yl)-4-(1-(difluoromethyl)-1H-pyrazol-5-yl)-1H-indazol-1-yl)pyridin-2-yl)methanol]
< 100 nM	C[C@H](N)c1cccc(-c2cc(-c3cnccn3)c3cnn(-c4cccc(CO)n4)c3c2)n1 [Example 388, (S)-(6-(6-(6-(1-aminoethyl)pyridin-2-yl)-4-(pyrazin-2-yl)-1H-indazol-1-yl)pyridin-2-yl)methanol]
< 100 nM	CCC[C@H](N)c1cccc(-c2cc(-c3cc(C)n(C)n3)c3cnn(-c4cccc(CO)n4)c3c2)n1 [Example 389, (S)-(6-(6-(6-(1-aminobutyl)pyridin-2-yl)-4-(1,5-dimethyl-1H-pyrazol-3-yl)-1H-indazol-1-yl)pyridin-2-yl)methanol]
< 100 nM	CC[C@@H](N)c1cccc(-c2cc(-c3cc(C)n(C)n3)c3cnn(-c4cccc(CO)n4)c3c2)n1 [Example 390, (R)-(6-(6-(6-(1-aminopropyl)pyridin-2-yl)-4-(1,5-dimethyl-1H-pyrazol-3-yl)-1H-indazol-1-yl)pyridin-2-yl)methanol]
< 100 nM	Cc1cc(-c2cc(-c3cccc([C@@H](N)CF)n3)cc3c2cnn3-c2cccc(CO)n2)nn1C [Example 391, (R)-(6-(6-(6-(1-amino-2-fluoroethyl)pyridin-2-yl)-4-(1,5-dimethyl-1H-pyrazol-3-yl)-1H-indazol-1-yl)pyridin-2-yl)methanol]
< 100 nM	Cc1cc(-c2cc(-c3cccc([C@@H](N)CCCO)n3)cc3c2cnn3-c2cccc(CO)n2)nn1C [Example 392, (S)-4-amino-4-(6-(4-(1,5-dimethyl-1H-pyrazol-3-yl)-1-(6-(hydroxymethyl)pyridin-2-yl)-1H-indazol-6-yl)pyridin-2-yl)butan-1-ol]
